Results from article PMC12867150, “A fungi-derived cyclic peptide enhances Th9-mediated antitumor immunity by targeting ZAP70 and SREBP1” (The Journal of Clinical Investigation, 2025).

Assays:
[1] = tested on: human Th9 CAR T cells; test: CAR lentivirus infection efficiency, GFP (S9C); format: cell-based; conditions: representative flow plot, Figure S9C
Excerpt: Ct EpA Fat Fat Ct EpA Fat Fat
(A) Flow-cytometric analysis of intracellular IL-9 expression in human Th9 cells […]
(B) Flow-cytometric assessment of mitochondrial mass using Mito Tracker in human Th9 cells treated as in (A) (n = 3).
(C) Flow-cytometric analysis of infection efficiency in Th9 cells transduced with a CD19-directed CAR lentivirus. (D and E) Flow-cytometric analysis of IL-9 expression in human Th9 CAR-T cells on days 5 and 6 of in vitro differentiation, showing representative plots (D) and quantification (E) (n = 3). (F) Measurement of intracellular ATP levels normalized to cell number in human Th9 CAR-T c e l l s (n =5).
(G) Flow-cytometric analysis of mitochondrial mass using Mito Tracker in human Th9 CAR-T c e l l s (n = 3). (H and I) Flow-cytometric analysis of granzyme B⁺ CAR-Th9 cells isolated from spleens after adoptive transfer, showing representative plots (H) and quantification (I) (n = 5 mice per group). Statistical analysis was performed using one-way ANOVA with Tukey’s post hoc test (A and B), or two-tailed unpaired Student’s t-test (E–G, and I). Repeated data are presented as mean ± SEM. *p < 0.05, […]

[2] = tested on: EpA-binding proteins in Th9 cell lysates; test: EpA-biotin pulldown and LC-MS/MS (Figure 5A, S7A-B); design: species or system mouse; conditions: result in words
Method: Cell lysates from Th9 cells were incubated overnight at 4 °C with EpA-biotin or biotin alone (control). Streptavidin-conjugated magnetic beads were added to capture biotinylated compounds and their interacting proteins. After washing, the bead-bound proteins were resolved by SDS-PAGE and visualized by silver staining. Distinct protein bands were excised, subjected to in-gel enzymatic digestion, and analyzed via liquid chromatography–tandem mass spectrometry (LC-MS/MS) to identify putative EpA-binding proteins.

[3] = tested on: IL9, IRF4, and SPI1 mRNA; test: Quantitative PCR of IL9, IRF4 and SPI1 in human Th9 cells (Figure 8C); format: cell-based; conditions: result in words
Method: For Th9 polarization, cultures were supplemented with IL-4 (10 ng/mL, PeproTech, catalog AF-200-04), TGF-β (1 ng/mL), and neutralizing anti–IFN-γ monoclonal antibody (10 μg/mL, clone B27, BioXcell, catalog BE0245). After 3 days of initial culture, cells were either collected for downstream assays or continued in extended culture with refreshed cytokines to maintain lineage commitment without antibodies. Th9 cells were collected at days 4, 5, and 6 for subsequent in vitro assays. For adoptive transfer studies, day 4–cultured Th9 cells were washed and prepared for intravenous injection.
Total RNA was extracted from T cells using RNAex Pro Reagent (AG, catalog AG21102) following the manufacturer’s instructions. First-strand complementary DNA (cDNA) was synthesized using the Hifair III 1st Strand cDNA Synthesis SuperMix (YEASEN, catalog 11137ES10). Quantitative real-time PCR (qRT-PCR) was conducted on a QuantStudio 3 Real-Time PCR System (Thermo Fisher Scientific) using ChamQ Universal SYBR qPCR Master Mix (Vazyme, catalog Q711-02) and gene-specific primers (Tsingke Biotech).
For normalization, mouse samples were referenced to Gapdh or Actb, and human samples were normalized to GAPDH. Relative gene expression was calculated using the ΔΔCt method. Primer sequences are listed in Supplemental Table 5.

anteiso-C15 Leu7 surfactin [EpA]
GFP gate number (infection efficiency) [1]: 47.8 | EpA pulldown, ZAP70 [2]: top candidate | IL9, IRF4, SPI1 mRNA [3]: upregulated
